Laboratory results as given in patent publication US10392368B2, “Pyrazolo and triazolo bicyclic compounds as JAK kinase inhibitors” (THERAVANCE BIOPHARMA R&D IP, LLC, priority 2017, dated 2019).

Experiments:
JAK2 = molecular target: T1, JAK2 (Homo sapiens, UniProt O60674); assay: Biochemical JAK2 kinase assay (LanthaScreen)
T1 construct: GST; purchased Life Technologies
How it was run: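 pKi values derive from pIC50 via Cheng-Prusoff, with IC50 from a 4-parameter fit of percent-inhibition TR-FRET data using Tb-anti-pSTAT1 (pTyr701) detection. Compound, GST-JAK2 and GFP-STAT1 substrate were pre-incubated 1 h, then ATP started a 1 h ambient reaction (HEPES pH 7.5, 10 mM MgCl2, 1% DMSO).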

[1] = test system: oxazolone-induced colitis; assay: Mouse model of oxazolone-induced colitis; assay type: in vivo; conditions: 3 mg/kg (PO, BID)
Protocol: Oxazolone-induced colitis is an experimental model that has a histological resemblance to human ulcerative colitis (Heller et al. Immunology, 2002, 17, 629-638). Adult BALB/C mice from Harlan were used in the assay. On day 1, animals were lightly anesthetized with isoflurane and the hairs between the shoulder were carefully removed before oxazolone (4%, 150 μL, 4:1 acetone:olive oil formulation) or vehicle solution was slowly applied for skin sensitization. Seven days after skin sensitization, the mice were fasted around 6 hours prior, anesthetized with ketamine/xylazine injection, and a 1 mL syringe equipped with a 3.5-F catheter, filled with oxazolone solution, was inserted carefully about 4 cm into the colon of the mouse. Following insertion, 50 μL of the oxazolone solution (0.8% in 1:1 ethanol:water formulation) was injected very slowly (over 30 sec using an injection pump) into the colon. Drug treatment (PO, QD or BID or TID) or vehicle was initiated a day prior to the oxazolone intrarectal (IR) challenge. Two-day post oxazolone intrarectal challenge, the disease was assessed by treatment-blinded experimenters for each mouse according to the criteria score: stool consistency score (0, normal; 2, loose; 4, diarrhea), gross bleeding score (0, absence; 2, blood tinged; 4, presence); Combined stool score endpoint=stool consistency score+stool blood score.
Select compounds were tested in the assay.

Tyk2 = molecular target: T2, Tyk2 (Homo sapiens, UniProt P29597); assay: Biochemical Tyk2 kinase assay (LanthaScreen)
T2 construct: GST; purchased Life Technologies
How it was run: (§1)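 TR-FRET read-out: terbium anti-pSTAT1 (pTyr701) antibody, 2 nM, with 10 mM EDTA quench, emission ratio 520/495 nm. GST-JAK phosphorylates GFP-STAT1 peptide for 1 h at ambient temperature after 1 h compound pre-incubation. pIC50 from dose-response converted to pKi by Cheng-Prusoff.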

JAK1 = molecular target: T3, JAK1 (Homo sapiens, UniProt P23458); assay: Biochemical JAK1 kinase assay (LanthaScreen)
T3 construct: GST; purchased Life Technologies
How it was run: as §1

[2] = test system: IL-2 stimulated pSTAT5 in Tall-1 T cells; assay: Cellular JAK3 potency assay: inhibition of IL-2 stimulated pSTAT5 in Tall-1 T cells; assay type: cell-based, human; conditions: for Tall-1 (pIC50): IL-2 stimulated pSTAT5 in Tall-1 T cells
How it was run: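 Tall-1 human T cells were preincubated with compound for 1 h at 37° C, then stimulated with IL-2 (300 ng/ml final) for 30 min. STAT5 phosphorylation in lysates was read by AlphaLisa bead emission, and IC50 from inhibition curves is given as pIC50 (mean±SD).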

JAK3 = molecular target: T4, JAK3 (Homo sapiens, UniProt P52333); assay: Biochemical JAK3 kinase assay (LanthaScreen); design: GST; purchased Life Technologies; conditions: for JAK3 (pKi)-JAK1 (pKi): selectivity: difference of pKi JAK3 and pKi JAK1
T4 sequence (P52333 1-1124): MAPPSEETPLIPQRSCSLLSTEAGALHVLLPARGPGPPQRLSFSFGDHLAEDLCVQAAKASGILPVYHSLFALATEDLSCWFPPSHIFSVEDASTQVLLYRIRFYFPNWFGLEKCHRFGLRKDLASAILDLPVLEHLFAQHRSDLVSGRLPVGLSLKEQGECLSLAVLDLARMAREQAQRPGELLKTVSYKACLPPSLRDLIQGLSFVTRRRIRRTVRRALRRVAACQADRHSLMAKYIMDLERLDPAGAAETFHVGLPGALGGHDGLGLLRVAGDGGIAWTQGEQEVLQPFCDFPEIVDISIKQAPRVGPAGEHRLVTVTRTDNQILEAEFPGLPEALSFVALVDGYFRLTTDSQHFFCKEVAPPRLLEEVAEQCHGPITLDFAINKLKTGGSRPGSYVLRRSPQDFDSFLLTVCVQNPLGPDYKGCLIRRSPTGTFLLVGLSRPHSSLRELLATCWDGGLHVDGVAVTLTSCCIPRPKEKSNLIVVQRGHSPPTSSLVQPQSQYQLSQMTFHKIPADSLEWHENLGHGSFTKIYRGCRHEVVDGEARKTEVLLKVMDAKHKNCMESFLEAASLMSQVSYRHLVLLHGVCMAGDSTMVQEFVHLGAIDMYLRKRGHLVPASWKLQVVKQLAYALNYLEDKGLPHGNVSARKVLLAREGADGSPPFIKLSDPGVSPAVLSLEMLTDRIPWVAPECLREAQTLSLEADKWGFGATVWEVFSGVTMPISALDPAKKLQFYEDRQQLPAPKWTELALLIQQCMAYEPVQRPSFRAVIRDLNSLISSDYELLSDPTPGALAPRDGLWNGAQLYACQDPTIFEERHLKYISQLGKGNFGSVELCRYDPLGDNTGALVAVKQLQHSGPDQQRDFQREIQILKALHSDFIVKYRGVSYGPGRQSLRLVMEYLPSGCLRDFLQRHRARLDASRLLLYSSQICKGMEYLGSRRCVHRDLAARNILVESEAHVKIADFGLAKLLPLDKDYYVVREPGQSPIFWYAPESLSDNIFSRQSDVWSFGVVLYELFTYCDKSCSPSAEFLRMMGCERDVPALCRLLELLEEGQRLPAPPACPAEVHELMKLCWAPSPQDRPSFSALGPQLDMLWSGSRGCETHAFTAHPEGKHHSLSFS
How it was run: as §1

T1 sequence (O60674 whole entry): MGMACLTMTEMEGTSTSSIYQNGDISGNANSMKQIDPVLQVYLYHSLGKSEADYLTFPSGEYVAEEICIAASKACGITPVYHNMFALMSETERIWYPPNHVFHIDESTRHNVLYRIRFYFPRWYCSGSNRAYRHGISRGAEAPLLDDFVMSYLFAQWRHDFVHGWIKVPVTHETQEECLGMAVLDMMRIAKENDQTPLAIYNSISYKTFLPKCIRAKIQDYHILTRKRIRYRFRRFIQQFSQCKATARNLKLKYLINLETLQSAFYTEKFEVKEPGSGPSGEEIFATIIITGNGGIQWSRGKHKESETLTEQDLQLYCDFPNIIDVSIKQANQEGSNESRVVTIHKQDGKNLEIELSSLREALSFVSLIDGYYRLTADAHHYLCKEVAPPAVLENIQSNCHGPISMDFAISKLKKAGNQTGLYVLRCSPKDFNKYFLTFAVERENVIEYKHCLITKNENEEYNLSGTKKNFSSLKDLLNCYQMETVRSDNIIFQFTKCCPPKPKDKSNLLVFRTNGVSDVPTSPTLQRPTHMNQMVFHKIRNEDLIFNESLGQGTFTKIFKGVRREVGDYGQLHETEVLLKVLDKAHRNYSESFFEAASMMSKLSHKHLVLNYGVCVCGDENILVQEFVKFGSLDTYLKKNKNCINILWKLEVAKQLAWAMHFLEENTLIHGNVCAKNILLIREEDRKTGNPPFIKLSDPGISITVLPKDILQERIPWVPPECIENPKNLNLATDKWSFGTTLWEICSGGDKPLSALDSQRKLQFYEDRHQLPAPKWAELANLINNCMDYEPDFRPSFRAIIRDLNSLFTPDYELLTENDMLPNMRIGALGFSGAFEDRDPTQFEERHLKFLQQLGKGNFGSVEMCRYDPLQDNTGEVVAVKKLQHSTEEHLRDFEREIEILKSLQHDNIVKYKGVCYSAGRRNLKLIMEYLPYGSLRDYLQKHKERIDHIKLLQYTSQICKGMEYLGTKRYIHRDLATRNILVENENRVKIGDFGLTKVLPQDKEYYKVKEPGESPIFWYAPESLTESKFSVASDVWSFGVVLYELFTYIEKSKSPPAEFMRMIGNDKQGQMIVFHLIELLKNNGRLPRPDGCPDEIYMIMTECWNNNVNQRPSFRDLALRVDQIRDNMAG
T3 sequence (P23458 whole entry): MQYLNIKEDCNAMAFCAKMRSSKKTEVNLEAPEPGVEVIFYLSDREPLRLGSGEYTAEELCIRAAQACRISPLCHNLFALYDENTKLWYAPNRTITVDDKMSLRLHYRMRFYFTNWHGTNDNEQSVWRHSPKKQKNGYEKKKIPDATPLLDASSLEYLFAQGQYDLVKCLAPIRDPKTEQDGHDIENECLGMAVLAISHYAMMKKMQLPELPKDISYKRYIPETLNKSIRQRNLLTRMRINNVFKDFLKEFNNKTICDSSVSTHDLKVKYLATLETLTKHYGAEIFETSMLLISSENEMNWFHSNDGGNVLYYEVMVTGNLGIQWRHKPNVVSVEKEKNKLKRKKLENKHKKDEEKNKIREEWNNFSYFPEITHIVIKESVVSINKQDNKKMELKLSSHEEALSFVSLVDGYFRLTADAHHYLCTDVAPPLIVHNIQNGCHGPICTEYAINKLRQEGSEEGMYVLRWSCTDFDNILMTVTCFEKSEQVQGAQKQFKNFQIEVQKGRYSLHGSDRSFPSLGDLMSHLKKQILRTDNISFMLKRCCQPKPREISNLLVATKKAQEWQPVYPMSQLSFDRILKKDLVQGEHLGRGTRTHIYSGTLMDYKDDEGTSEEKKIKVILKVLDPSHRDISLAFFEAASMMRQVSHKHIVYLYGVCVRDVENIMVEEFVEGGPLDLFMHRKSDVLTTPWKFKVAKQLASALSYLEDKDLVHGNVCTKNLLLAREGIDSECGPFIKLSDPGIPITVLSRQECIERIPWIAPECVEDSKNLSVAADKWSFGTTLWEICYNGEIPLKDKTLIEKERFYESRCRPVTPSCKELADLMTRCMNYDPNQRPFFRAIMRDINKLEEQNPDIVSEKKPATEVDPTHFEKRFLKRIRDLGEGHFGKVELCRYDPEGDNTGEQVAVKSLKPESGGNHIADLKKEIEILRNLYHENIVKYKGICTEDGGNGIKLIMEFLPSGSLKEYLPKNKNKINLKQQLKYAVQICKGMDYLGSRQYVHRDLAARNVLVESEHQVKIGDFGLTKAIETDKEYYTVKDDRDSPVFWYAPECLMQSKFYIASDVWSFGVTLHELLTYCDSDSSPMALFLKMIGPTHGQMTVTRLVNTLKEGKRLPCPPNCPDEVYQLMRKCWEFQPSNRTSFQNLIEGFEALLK
T2 sequence (P29597 whole entry): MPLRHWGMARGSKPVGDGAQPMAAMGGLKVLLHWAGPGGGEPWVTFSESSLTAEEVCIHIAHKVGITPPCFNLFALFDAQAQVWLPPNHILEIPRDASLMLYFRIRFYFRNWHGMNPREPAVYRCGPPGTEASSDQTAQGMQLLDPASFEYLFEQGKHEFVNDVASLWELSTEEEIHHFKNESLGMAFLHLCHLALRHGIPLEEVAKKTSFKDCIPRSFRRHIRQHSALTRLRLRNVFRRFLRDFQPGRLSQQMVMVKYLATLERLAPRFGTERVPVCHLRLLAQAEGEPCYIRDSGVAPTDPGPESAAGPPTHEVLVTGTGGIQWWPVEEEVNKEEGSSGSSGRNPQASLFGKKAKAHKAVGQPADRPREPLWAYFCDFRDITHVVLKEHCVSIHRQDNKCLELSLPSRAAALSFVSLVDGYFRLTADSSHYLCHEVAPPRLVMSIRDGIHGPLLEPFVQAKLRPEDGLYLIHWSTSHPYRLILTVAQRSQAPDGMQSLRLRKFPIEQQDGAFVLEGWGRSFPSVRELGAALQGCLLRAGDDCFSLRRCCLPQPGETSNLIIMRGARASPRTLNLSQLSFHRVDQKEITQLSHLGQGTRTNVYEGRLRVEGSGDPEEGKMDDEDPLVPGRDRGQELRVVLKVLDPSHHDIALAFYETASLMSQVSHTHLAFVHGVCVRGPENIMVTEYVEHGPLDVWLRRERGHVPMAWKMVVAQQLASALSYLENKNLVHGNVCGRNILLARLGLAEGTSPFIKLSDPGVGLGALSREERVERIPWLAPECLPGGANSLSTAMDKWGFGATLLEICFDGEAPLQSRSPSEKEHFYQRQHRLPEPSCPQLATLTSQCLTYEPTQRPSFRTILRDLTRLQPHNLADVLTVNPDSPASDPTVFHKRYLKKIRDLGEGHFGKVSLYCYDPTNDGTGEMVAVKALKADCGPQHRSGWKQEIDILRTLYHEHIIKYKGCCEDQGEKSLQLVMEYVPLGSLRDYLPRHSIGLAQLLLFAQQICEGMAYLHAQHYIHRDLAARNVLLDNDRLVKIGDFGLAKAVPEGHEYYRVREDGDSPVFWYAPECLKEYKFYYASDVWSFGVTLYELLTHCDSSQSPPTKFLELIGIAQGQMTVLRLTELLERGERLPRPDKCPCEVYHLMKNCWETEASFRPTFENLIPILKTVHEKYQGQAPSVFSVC

SMILES | JAK 2 (pKi) (JAK2) | combined stool score endpoint as compared with vehicle treated animals [1] | Tyk 2 (pKi) (Tyk2) | JAK 1 (pKi) (JAK1) | Tall-1 (pIC50) [2] | JAK 3 (pKi) (JAK3) | JAK3 (pKi)-JAK1 (pKi) (JAK3) | Ki (JAK2; read-out: JAK 2 (pKi) (converted)) | Ki (Tyk2; read-out: Tyk 2 (pKi) (converted)) | Ki (JAK1; read-out: JAK 1 (pKi) (converted)) | IC50 ([2]; Homo sapiens, TALL-1, IL-2 stimulated pSTAT5 in Tall-1 T cells, read-out: Tall-1 (pIC50) (converted)) | Ki (JAK3; read-out: JAK 3 (pKi) (converted))
CN(C)C/C=C/C(=O)N1CC(C)(COc2cc(-c3ccc(O)c(F)c3)cc3[nH]ncc23)C1 [Compound 3-11] | D (a pKi value between 7 and 8 (Ki between 100 nM and 10 nM)) | statistically significant decrease | E (a pKi value of 7 or below (Ki of 100 nM or above)) | E (a pKi value of 7 or below (Ki of 100 nM or above)) | B (a pIC50 value between 6.7 (included) and 7.5 (IC50 between 200 nM and 32 nM)) | A (a pKi value≥10 (Ki≤0.1 nM)) | A (a value of 3 or above) | – | – | – | – | –
CN(C)C/C=C/C(=O)N1CC(COc2nc(-c3ccc(O)c(Cl)c3)cc3[nH]ncc23)C1 [Compound 3-34] | E (a pKi value of 7 or below (Ki of 100 nM or above)) | statistically significant decrease | E (a pKi value of 7 or below (Ki of 100 nM or above)) | E (a pKi value of 7 or below (Ki of 100 nM or above)) | B (a pIC50 value between 6.7 (included) and 7.5 (IC50 between 200 nM and 32 nM)) | A (a pKi value≥10 (Ki≤0.1 nM)) | A (a value of 3 or above) | – | – | – | – | –
CN(C)C/C=C/C(=O)N1CC(C)(COc2nc(-c3ccc(O)cc3)cc3[nH]ncc23)C1 [Compound 3-55] | E (a pKi value of 7 or below (Ki of 100 nM or above)) | statistically significant decrease | E (a pKi value of 7 or below (Ki of 100 nM or above)) | E (a pKi value of 7 or below (Ki of 100 nM or above)) | B (a pIC50 value between 6.7 (included) and 7.5 (IC50 between 200 nM and 32 nM)) | A (a pKi value≥10 (Ki≤0.1 nM)) | A (a value of 3 or above) | – | – | – | – | –
C=CC(=O)N1CC(C)(COc2nc(-c3ccc(O)cc3)nc3[nH]ncc23)C1 [Compound 3-57] | E (a pKi value of 7 or below (Ki of 100 nM or above)) | statistically significant decrease | E (a pKi value of 7 or below (Ki of 100 nM or above)) | E (a pKi value of 7 or below (Ki of 100 nM or above)) | B (a pIC50 value between 6.7 (included) and 7.5 (IC50 between 200 nM and 32 nM)) | A (a pKi value≥10 (Ki≤0.1 nM)) | A (a value of 3 or above) | – | – | – | – | –
COC1(COc2cc(-c3ccc(O)c(Cl)c3)cc3[nH]ncc23)CN(C(=O)/C=C/CN(C)C)C1 [Compound 3-72] | – | statistically significant decrease | – | – | – | – | A (a value of 3 or above) | > 100 nM | > 100 nM | > 100 nM | < 31.6 nM | 0.1 to 1 nM
